# Laboratory results: PubChem BioAssay (NCI)
#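 Results reflect a 48-hour exposure of cells in 96-well plates to compound at five concentrations. The concentration for full growth arrest is given as TGI.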
# What was measured:
# Experiment in all cases: inhibition of tumour cell growth, NCI panel, 48 h
# 786-0 renal = tested on: 786-0 renal
# A498 renal = tested on: A498 renal
# A549 NSCLC = tested on: A549 NSCLC
# ACHN renal = tested on: ACHN renal
# CAKI-1 renal = tested on: CAKI-1 renal
# CCRF-CEM leukemia = tested on: CCRF-CEM leukemia
# COLO 205 colon = tested on: COLO 205 colon
# DLD-1 colon = tested on: DLD-1 colon
# DMS 114 small cell lung = tested on: DMS 114 small cell lung
# DMS 273 small cell lung = tested on: DMS 273 small cell lung
# EKVX NSCLC = tested on: EKVX NSCLC
# HCT-116 colon = tested on: HCT-116 colon
# HCT-15 colon = tested on: HCT-15 colon
# HL-60(TB) leukemia = tested on: HL-60(TB) leukemia
# HOP-18 NSCLC = tested on: HOP-18 NSCLC
# HOP-62 NSCLC = tested on: HOP-62 NSCLC
# HOP-92 NSCLC = tested on: HOP-92 NSCLC
# HT29 colon = tested on: HT29 colon
# IGROV1 ovarian = tested on: IGROV1 ovarian
# KM12 colon = tested on: KM12 colon
# KM20L2 colon = tested on: KM20L2 colon
# LOX IMVI melanoma = tested on: LOX IMVI melanoma
# LXFL 529 NSCLC = tested on: LXFL 529 NSCLC
# M14 melanoma = tested on: M14 melanoma
# M19-MEL melanoma = tested on: M19-MEL melanoma
# MALME-3M melanoma = tested on: MALME-3M melanoma
# MOLT-4 leukemia = tested on: MOLT-4 leukemia
# NCI-H226 lung = tested on: NCI-H226 lung
# NCI-H23 lung = tested on: NCI-H23 lung
# NCI-H460 lung = tested on: NCI-H460 lung
# NCI-H522 lung = tested on: NCI-H522 lung
# OVCAR-3 ovarian = tested on: OVCAR-3 ovarian
# OVCAR-4 ovarian = tested on: OVCAR-4 ovarian
# OVCAR-5 ovarian = tested on: OVCAR-5 ovarian
# OVCAR-8 ovarian = tested on: OVCAR-8 ovarian
# RXF 393 renal = tested on: RXF 393 renal
# SF-268 CNS = tested on: SF-268 CNS
# SF-295 CNS = tested on: SF-295 CNS
# SK-MEL-2 melanoma = tested on: SK-MEL-2 melanoma
# SK-MEL-28 melanoma = tested on: SK-MEL-28 melanoma
# SK-MEL-5 melanoma = tested on: SK-MEL-5 melanoma
# SK-OV-3 ovarian = tested on: SK-OV-3 ovarian
# SN12C renal = tested on: SN12C renal
# SNB-19 CNS = tested on: SNB-19 CNS
# SNB-75 CNS = tested on: SNB-75 CNS
# SR leukemia = tested on: SR leukemia
# SW-620 colon = tested on: SW-620 colon
# TK-10 renal = tested on: TK-10 renal
# U251 CNS = tested on: U251 CNS
# UACC-257 melanoma = tested on: UACC-257 melanoma
# UACC-62 melanoma = tested on: UACC-62 melanoma
# UO-31 renal = tested on: UO-31 renal
# XF 498 CNS = tested on: XF 498 CNS
# HCC-2998 colon = tested on: HCC-2998 colon
# K-562 leukemia = tested on: K-562 leukemia
# RPMI-8226 leukemia = tested on: RPMI-8226 leukemia
# SF-539 CNS = tested on: SF-539 CNS
# SNB-78 CNS = tested on: SNB-78 CNS
compound,measurement,setting,value
[O-][n+]1c2cc(CBr)c(CBr)cc2[n+]([O-])c2c(O)cccc21,TGI,786-0 renal,2.93 µM
same,TGI,A498 renal,25.7 µM
same,TGI,A549 NSCLC,9.03 µM
same,TGI,ACHN renal,3.51 µM
same,TGI,CAKI-1 renal,6.7 µM
same,TGI,CCRF-CEM leukemia,0.714 µM
same,TGI,COLO 205 colon,3.47 µM
same,TGI,DLD-1 colon,2.71 µM
same,TGI,DMS 114 small cell lung,3.35 µM
same,TGI,DMS 273 small cell lung,3.22 µM
same,TGI,EKVX NSCLC,11.6 µM
same,TGI,HCT-116 colon,2.87 µM
same,TGI,HCT-15 colon,3.18 µM
same,TGI,HL-60(TB) leukemia,1.14 µM
same,TGI,HOP-18 NSCLC,10.5 µM
same,TGI,HOP-62 NSCLC,34.7 µM
same,TGI,HOP-92 NSCLC,2.92 µM
same,TGI,HT29 colon,3.88 µM
same,TGI,IGROV1 ovarian,8.59 µM
same,TGI,KM12 colon,3.66 µM
same,TGI,KM20L2 colon,9.53 µM
same,TGI,LOX IMVI melanoma,2.64 µM
same,TGI,LXFL 529 NSCLC,2.89 µM
same,TGI,M14 melanoma,3.29 µM
same,TGI,M19-MEL melanoma,3.32 µM
same,TGI,MALME-3M melanoma,3.47 µM
same,TGI,MOLT-4 leukemia,1.25 µM
same,TGI,NCI-H226 lung,14.2 µM
same,TGI,NCI-H23 lung,6.68 µM
same,TGI,NCI-H460 lung,4.21 µM
same,TGI,NCI-H522 lung,1.16 µM
same,TGI,OVCAR-3 ovarian,5.24 µM
same,TGI,OVCAR-4 ovarian,5.25 µM
same,TGI,OVCAR-5 ovarian,3.74 µM
same,TGI,OVCAR-8 ovarian,3.3 µM
same,TGI,RXF 393 renal,3.69 µM
same,TGI,SF-268 CNS,5.91 µM
same,TGI,SF-295 CNS,3.27 µM
same,TGI,SK-MEL-2 melanoma,4.83 µM
same,TGI,SK-MEL-28 melanoma,3.67 µM
same,TGI,SK-MEL-5 melanoma,4.39 µM
same,TGI,SK-OV-3 ovarian,9.15 µM
same,TGI,SN12C renal,3.05 µM
same,TGI,SNB-19 CNS,11 µM
same,TGI,SNB-75 CNS,4.48 µM
same,TGI,SR leukemia,0.662 µM
same,TGI,SW-620 colon,2.9 µM
same,TGI,TK-10 renal,10.9 µM
same,TGI,U251 CNS,7.07 µM
same,TGI,UACC-257 melanoma,6.37 µM
same,TGI,UACC-62 melanoma,3.39 µM
same,TGI,UO-31 renal,4.56 µM
same,TGI,XF 498 CNS,4.67 µM
Cc1ccc(C2=C(c3ccccc3)C(=O)C(c3ccccc3)=C2c2ccc(C)cc2)cc1,TGI,786-0 renal,> 100 µM
same,TGI,A498 renal,> 100 µM
same,TGI,A549 NSCLC,> 100 µM
same,TGI,ACHN renal,> 100 µM
same,TGI,CCRF-CEM leukemia,70.5 µM
same,TGI,DLD-1 colon,> 100 µM
same,TGI,EKVX NSCLC,> 100 µM
same,TGI,HCC-2998 colon,> 100 µM
same,TGI,HCT-116 colon,> 100 µM
same,TGI,HCT-15 colon,> 100 µM
same,TGI,HOP-18 NSCLC,> 100 µM
same,TGI,HOP-62 NSCLC,> 100 µM
same,TGI,HT29 colon,> 100 µM
same,TGI,IGROV1 ovarian,> 100 µM
same,TGI,K-562 leukemia,> 100 µM
same,TGI,KM12 colon,> 100 µM
same,TGI,KM20L2 colon,> 100 µM
same,TGI,LXFL 529 NSCLC,> 100 µM
same,TGI,M14 melanoma,> 100 µM
same,TGI,M19-MEL melanoma,> 100 µM
same,TGI,MALME-3M melanoma,> 100 µM
same,TGI,MOLT-4 leukemia,> 100 µM
same,TGI,NCI-H226 lung,> 100 µM
same,TGI,NCI-H23 lung,85.1 µM
same,TGI,NCI-H460 lung,> 100 µM
same,TGI,NCI-H522 lung,> 100 µM
same,TGI,OVCAR-5 ovarian,> 100 µM
same,TGI,OVCAR-8 ovarian,> 100 µM
same,TGI,RPMI-8226 leukemia,> 100 µM
same,TGI,RXF 393 renal,> 100 µM
same,TGI,SF-268 CNS,> 100 µM
same,TGI,SF-295 CNS,> 100 µM
same,TGI,SF-539 CNS,46.9 µM
same,TGI,SK-MEL-2 melanoma,> 100 µM
same,TGI,SK-MEL-28 melanoma,48 µM
same,TGI,SK-MEL-5 melanoma,> 100 µM
same,TGI,SK-OV-3 ovarian,> 100 µM
same,TGI,SN12C renal,> 100 µM
same,TGI,SNB-19 CNS,> 100 µM
same,TGI,SNB-75 CNS,> 100 µM
same,TGI,SNB-78 CNS,> 100 µM
same,TGI,SR leukemia,> 100 µM
same,TGI,SW-620 colon,95.7 µM
same,TGI,TK-10 renal,> 100 µM
same,TGI,U251 CNS,> 100 µM
same,TGI,UACC-257 melanoma,> 100 µM
same,TGI,UO-31 renal,> 100 µM
same,TGI,XF 498 CNS,> 100 µM
CCCCCCCCCCCCCC(=S)N/C=C/OC,TGI,786-0 renal,> 100 µM
same,TGI,A498 renal,86.2 µM
same,TGI,A549 NSCLC,> 100 µM
same,TGI,ACHN renal,96.4 µM
same,TGI,CCRF-CEM leukemia,56.2 µM
same,TGI,COLO 205 colon,71.4 µM
same,TGI,DLD-1 colon,> 100 µM
same,TGI,DMS 114 small cell lung,48.3 µM
same,TGI,EKVX NSCLC,81.7 µM
same,TGI,HCC-2998 colon,45.9 µM
same,TGI,HCT-116 colon,> 100 µM
same,TGI,HCT-15 colon,53.3 µM
same,TGI,HL-60(TB) leukemia,36.8 µM
same,TGI,HOP-18 NSCLC,> 100 µM
same,TGI,HOP-62 NSCLC,> 100 µM
same,TGI,HOP-92 NSCLC,74.5 µM
same,TGI,HT29 colon,50.1 µM
same,TGI,IGROV1 ovarian,> 100 µM
same,TGI,KM12 colon,81.9 µM
same,TGI,KM20L2 colon,> 100 µM
same,TGI,LOX IMVI melanoma,46.8 µM
same,TGI,LXFL 529 NSCLC,> 100 µM
same,TGI,M14 melanoma,> 100 µM
same,TGI,M19-MEL melanoma,99.6 µM
same,TGI,MALME-3M melanoma,> 100 µM
same,TGI,NCI-H226 lung,> 100 µM
same,TGI,NCI-H23 lung,74 µM
same,TGI,NCI-H460 lung,> 100 µM
same,TGI,NCI-H522 lung,46.3 µM
same,TGI,OVCAR-3 ovarian,56.1 µM
same,TGI,OVCAR-4 ovarian,> 100 µM
same,TGI,OVCAR-5 ovarian,> 100 µM
same,TGI,OVCAR-8 ovarian,> 100 µM
same,TGI,RPMI-8226 leukemia,51.5 µM
same,TGI,RXF 393 renal,54.8 µM
same,TGI,SF-268 CNS,> 100 µM
same,TGI,SF-295 CNS,85.4 µM
same,TGI,SF-539 CNS,> 100 µM
same,TGI,SK-MEL-2 melanoma,73 µM
same,TGI,SK-MEL-28 melanoma,> 100 µM
same,TGI,SK-MEL-5 melanoma,61.7 µM
same,TGI,SK-OV-3 ovarian,> 100 µM
same,TGI,SN12C renal,> 100 µM
same,TGI,SNB-19 CNS,> 100 µM
same,TGI,SNB-75 CNS,> 100 µM
same,TGI,SNB-78 CNS,> 100 µM
same,TGI,SW-620 colon,> 100 µM
same,TGI,TK-10 renal,> 100 µM
same,TGI,U251 CNS,53.1 µM
same,TGI,UACC-257 melanoma,57 µM
same,TGI,UACC-62 melanoma,71.3 µM
same,TGI,UO-31 renal,95.6 µM
same,TGI,XF 498 CNS,51.9 µM
